Reference: US5977133A, “Pyridone antibiotic with improved safety profile” (priority 1998, dated 1999)
Converted amounts (≈) assume the structure as drawn.

Tests used:
Type in all cases: cell-based
S. aureus (CiproS) = test: In vitro MIC, agar dilution; settings: Staphylococcus aureus
S. aureus (CiproR) = test: In vitro MIC, agar dilution; settings: Staphylococcus aureus
S. epidermidis (CiproS) = test: In vitro MIC, agar dilution; settings: Staphylococcus epidermidis
S. epidermidis (CiproR) = test: In vitro MIC, agar dilution; settings: Staphylococcus epidermidis, S. epidermidis (CiproR), 11 isolates
S. pneumoniae (PenR) = test: In vitro MIC, agar dilution; settings: Streptococcus pneumoniae
S. pneumoniae (CiproR) = test: In vitro MIC, agar dilution; settings: Streptococcus pneumoniae, read-out: MIC Range
S. pyogenes = test: In vitro MIC, agar dilution; settings: Streptococcus pyogenes
E. faecium (CiproS) = test: In vitro MIC, agar dilution; settings: Enterococcus faecium, E. faecium (CiproS), 16 isolates
E. faecium (CiproR) = test: In vitro MIC, agar dilution; settings: Enterococcus faecium; E. faecium (CiproR), 2 isolates; read-out: MIC Range
E. faecalis (VanS) = test: In vitro MIC, agar dilution; settings: Enterococcus faecalis
E. coli = test: In vitro MIC, agar dilution; settings: Escherichia coli, 25 isolates
Procedure, shortened: (§1)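 MIC, the lowest compound level without growth versus a drug-free BHI control plate, with faint haze or scattered colonies scored as no growth. About 10^4 CFU was replicator-spotted from 1:100 dilutions, or 1:10 for slow-growing strains, and plates were read after ~20–24 h at 35–37 °C.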

Salmonella spp. = test: In vitro MIC, agar dilution; settings: 23 isolates
Procedure, shortened: as §1

Shigella spp. = test: microbe, parasite or virus in culture; settings: read-out: MIC Range
Klebsiella spp. = test: In vitro MIC, agar dilution
C. freundii = test: In vitro MIC, agar dilution; settings: Citrobacter freundii
P. mirabilis = test: In vitro MIC, agar dilution; settings: Proteus mirabilis
Providencia spp. = test: In vitro MIC, agar dilution; settings: Providencia spp., 28 isolates
Enterobacter spp. = test: In vitro MIC, agar dilution
P. aeruginosa (CiproS) = test: In vitro MIC, agar dilution; settings: Pseudomonas aeruginosa, P. aeruginosa (CiproS), 24 isolates
P. aeruginosa (CiproR) = test: In vitro MIC, agar dilution; settings: Pseudomonas aeruginosa
B. fragilis = test: In vitro MIC, agar dilution; settings: Bacteroides fragilis
C. difficile = test: In vitro MIC, agar dilution; settings: Clostridioides difficile
C. perfringens = test: microbe, parasite or virus in culture; settings: Clostridium perfringens
H. influenzae = test: In vitro MIC, agar dilution; settings: Haemophilus influenzae
M. catarrhalis = test: In vitro MIC, agar dilution; settings: Moraxella catarrhalis
Legionella spp. = test: microbe, parasite or virus in culture; settings: Legionella
M. pneumoniae = test: In vitro MIC, agar dilution; settings: Mycoplasmoides pneumoniae, read-out: MIC Range
N. gonorrhoeae = test: In vitro MIC, agar dilution; settings: Neisseria gonorrhoeae
H. pylori = test: In vitro MIC, agar dilution; settings: Helicobacter pylori
M. avium = test: In vitro MIC, agar dilution; settings: Mycobacterium avium

`C[C@@H]1CN(c2c(F)c(N)c3c(=O)c(C(=O)O)cn(C4CC4)c3c2F)C[C@H](C)N1` [Sparfloxacin, sparfloxacin] gave an MIC50 (S. aureus (CiproS)) of 0.03 µg/mL (≈ 0.0765 µM), an MIC90 (S. aureus (CiproS)) of 0.06 µg/mL (≈ 0.153 µM) and an MIC (S. aureus (CiproS); S. aureus (CiproS), 21 isolates, read-out: MIC Range) of 0.03 to 0.06 µg/mL (≈ 0.0765 to 0.153 µM). It also gave an MIC (S. aureus (CiproR); read-out: MIC Range) of 0.12 to 16 µg/mL (≈ 0.306 to 40.8 µM), an MIC50 (S. aureus (CiproR); S. aureus (CiproR), 25 isolates, read-out: MIC50) of 4 µg/mL (≈ 10.2 µM) and an MIC90 (S. aureus (CiproR); S. aureus (CiproR), 25 isolates, read-out: MIC90) of 8 µg/mL (≈ 20.4 µM). For the same compound, the MIC90 (S. epidermidis (CiproS)) was 0.12 µg/mL (≈ 0.306 µM), the MIC50 (S. epidermidis (CiproS); S. epidermidis (CiproS), 23 isolates, read-out: MIC50) was 0.06 µg/mL (≈ 0.153 µM) and the MIC (S. epidermidis (CiproS); S. epidermidis (CiproS), 23 isolates, read-out: MIC Range) was 0.03 to 0.12 µg/mL (≈ 0.0765 to 0.306 µM). The MIC50 (S. epidermidis (CiproR); read-out: MIC50) was 4 µg/mL (≈ 10.2 µM), the MIC90 (S. epidermidis (CiproR); read-out: MIC90) was 8 µg/mL (≈ 20.4 µM) and the MIC90 (S. pneumoniae (PenR)) was 0.25 µg/mL (≈ 0.637 µM). For the same compound, the MIC (S. pneumoniae (PenR); read-out: MIC Range) was 0.12 to 0.25 µg/mL (≈ 0.306 to 0.637 µM), the MIC50 (S. pneumoniae (PenR); S. pneumoniae (PenR), 25 isolates, read-out: MIC50) was 0.25 µg/mL (≈ 0.637 µM) and the MIC (S. pneumoniae (CiproR)) was 0.25 to 0.5 µg/mL (≈ 0.637 to 1.27 µM). The MIC90 (S. pyogenes) was 0.5 µg/mL (≈ 1.27 µM), the MIC (S. pyogenes; read-out: MIC Range) was 0.12 to 1 µg/mL (≈ 0.306 to 2.55 µM) and the MIC50 (S. pyogenes; S. pyogenes, 21 isolates, read-out: MIC50) was 0.25 µg/mL (≈ 0.637 µM). For the same compound, the MIC50 (E. faecium (CiproS); read-out: MIC50) was 0.5 µg/mL (≈ 1.27 µM), the MIC90 (E. faecium (CiproS); read-out: MIC90) was 1 µg/mL (≈ 2.55 µM) and the MIC (E. faecium (CiproS); read-out: MIC Range) was 0.5 to 32 µg/mL (≈ 1.27 to 81.5 µM). The MIC (E. faecium (CiproR)) was 8 to 32 µg/mL (≈ 20.4 to 81.5 µM), the MIC90 (E. faecalis (VanS)) was 0.5 µg/mL (≈ 1.27 µM) and the MIC (E. faecalis (VanS); read-out: MIC Range) was 0.25 to 1 µg/mL (≈ 0.637 to 2.55 µM). The MIC50 (E. faecalis (VanS); E. faecalis (VanS), 17 isolates, read-out: MIC50) was 0.5 µg/mL (≈ 1.27 µM), the MIC (E. coli) was 0.004 to 0.03 µg/mL (≈ 0.0102 to 0.0765 µM) and the MIC50 (E. coli; read-out: MIC50) was 0.015 µg/mL (≈ 0.0382 µM). The MIC90 (E. coli; read-out: MIC90) was 0.03 µg/mL (≈ 0.0765 µM), the MIC (Salmonella spp.) was 0.004 to 0.5 µg/mL (≈ 0.0102 to 1.27 µM) and the MIC50 (Salmonella spp.; read-out: MIC50) was 0.03 µg/mL (≈ 0.0765 µM). For the same compound, the MIC90 (Salmonella spp.; read-out: MIC90) was 0.06 µg/mL (≈ 0.153 µM), the MIC (Shigella spp.) was 0.004 to 0.015 µg/mL (≈ 0.0102 to 0.0382 µM) and the MIC90 (Klebsiella spp.; Klebsiella) was 0.06 µg/mL (≈ 0.153 µM). The MIC50 (Klebsiella spp.; Klebsiella spp., 29 isolates, read-out: MIC50) was 0.06 µg/mL (≈ 0.153 µM), the MIC (Klebsiella spp.; Klebsiella spp., 29 isolates, read-out: MIC Range) was 0.004 to 0.5 µg/mL (≈ 0.0102 to 1.27 µM) and the MIC50 (C. freundii) was 0.03 µg/mL (≈ 0.0765 µM). It also gave an MIC90 (C. freundii) of 0.5 µg/mL (≈ 1.27 µM), an MIC (C. freundii; C. freundii, 20 isolates, read-out: MIC Range) of 0.015 to 1 µg/mL (≈ 0.0382 to 2.55 µM) and an MIC90 (P. mirabilis) of 0.25 µg/mL (≈ 0.637 µM). It also gave an MIC (P. mirabilis; read-out: MIC Range) of 0.12 to 0.5 µg/mL (≈ 0.306 to 1.27 µM), an MIC50 (P. mirabilis; P. mirabilis, 20 isolates, read-out: MIC50) of 0.25 µg/mL (≈ 0.637 µM) and an MIC50 (Providencia spp.; read-out: MIC50) of 0.12 µg/mL (≈ 0.306 µM). For the same compound, the MIC90 (Providencia spp.; read-out: MIC90) was 1 µg/mL (≈ 2.55 µM), the MIC (Providencia spp.; read-out: MIC Range) was 0.015 to 2 µg/mL (≈ 0.0382 to 5.1 µM) and the MIC90 (Enterobacter spp.; Enterobacter) was 0.06 µg/mL (≈ 0.153 µM). It also gave an MIC50 (Enterobacter spp.; Enterobacter spp., 35 isolates, read-out: MIC50) of 0.06 µg/mL (≈ 0.153 µM), an MIC (Enterobacter spp.; Enterobacter spp., 35 isolates, read-out: MIC Range) of 0.008 to 0.25 µg/mL (≈ 0.0204 to 0.637 µM) and an MIC50 (P. aeruginosa (CiproS); read-out: MIC50) of 0.5 µg/mL (≈ 1.27 µM). The MIC90 (P. aeruginosa (CiproS); read-out: MIC90) was 1 µg/mL (≈ 2.55 µM), the MIC (P. aeruginosa (CiproS); read-out: MIC Range) was 0.06 to 8 µg/mL (≈ 0.153 to 20.4 µM) and the MIC90 (P. aeruginosa (CiproR)) was 128 µg/mL (≈ 326 µM). For the same compound, the MIC50 (P. aeruginosa (CiproR); P. aeruginosa (CiproR), 20 isolates, read-out: MIC50) was 64 µg/mL (≈ 163 µM), the MIC (B. fragilis; read-out: MIC Range) was 0.5 to 2 µg/mL (≈ 1.27 to 5.1 µM) and the MIC50 (B. fragilis; B. fragilis, 18 isolates, read-out: MIC50) was 1 µg/mL (≈ 2.55 µM). For the same compound, the MIC90 (B. fragilis; B. fragilis, 18 isolates, read-out: MIC90) was 2 µg/mL (≈ 5.1 µM), the MIC (C. difficile; read-out: MIC Range) was 2 to 4 µg/mL (≈ 5.1 to 10.2 µM) and the MIC50 (C. difficile; C. difficile, 10 isolates, read-out: MIC50) was 4 µg/mL (≈ 10.2 µM). The MIC90 (C. difficile; C. difficile, 10 isolates, read-out: MIC90) was 4 µg/mL (≈ 10.2 µM), the MIC50 (C. perfringens) was 0.25 µg/mL (≈ 0.637 µM) and the MIC90 (C. perfringens; C. perfringens, 13 isolates) was 0.5 µg/mL (≈ 1.27 µM). For the same compound, the MIC (C. perfringens; read-out: MIC Range) was 0.06 to 0.5 µg/mL (≈ 0.153 to 1.27 µM), the MIC90 (H. influenzae) was 0.015 µg/mL (≈ 0.0382 µM) and the MIC50 (H. influenzae; H. influenzae, 18 isolates, read-out: MIC50) was 0.008 µg/mL (≈ 0.0204 µM). For the same compound, the MIC (H. influenzae; H. influenzae, 18 isolates, read-out: MIC Range) was 0.004 to 0.03 µg/mL (≈ 0.0102 to 0.0765 µM), the MIC50 (M. catarrhalis) was 0.03 µg/mL (≈ 0.0765 µM) and the MIC90 (M. catarrhalis) was 0.06 µg/mL (≈ 0.153 µM). For the same compound, the MIC (M. catarrhalis; M. catarrhalis, 18 isolates, read-out: MIC Range) was 0.015 to 0.25 µg/mL (≈ 0.0382 to 0.637 µM), the MIC50 (Legionella spp.) was 0.06 µg/mL (≈ 0.153 µM) and the MIC90 (Legionella spp.) was 0.25 µg/mL (≈ 0.637 µM). The MIC (Legionella spp.; read-out: MIC Range) was 0.03 to 0.25 µg/mL (≈ 0.0765 to 0.637 µM), the MIC (M. pneumoniae) was 0.06 to 0.12 µg/mL (≈ 0.153 to 0.306 µM) and the MIC90 (N. gonorrhoeae) was 0.015 µg/mL (≈ 0.0382 µM). It also gave an MIC50 (N. gonorrhoeae; N. gonorrhoeae, 12 isolates, read-out: MIC50) of 0.004 µg/mL (≈ 0.0102 µM), an MIC (N. gonorrhoeae; N. gonorrhoeae, 12 isolates, read-out: MIC Range) of 0.002 to 0.06 µg/mL (≈ 0.0051 to 0.153 µM) and an MIC90 (H. pylori) of 0.25 µg/mL (≈ 0.637 µM). It also gave an MIC (H. pylori; read-out: MIC Range) of 0.06 to 0.25 µg/mL (≈ 0.153 to 0.637 µM), an MIC50 (H. pylori; H. pylori, 17 isolates, read-out: MIC50) of 0.12 µg/mL (≈ 0.306 µM) and an MIC (M. avium; read-out: MIC Range) of 0.5 to 16 µg/mL (≈ 1.27 to 40.8 µM). It also gave an MIC50 (M. avium; M. avium, 20 isolates, read-out: MIC50) of 2 µg/mL (≈ 5.1 µM) and an MIC90 (M. avium; M. avium, 20 isolates, read-out: MIC90) of 2 µg/mL (≈ 5.1 µM).
